According to patent US20100104664A1, “TREATMENT OF CHRONIC RENAL FAILURE AND OTHER CONDITIONS IN DOMESTIC ANIMALS: COMPOSITIONS AND METHODS” (priority 2005, published 2010):

Tests used:
[1] = system: Sprague-Dawley rats with 5/6th nephrectomy; experiment: In vivo study in 5/6th nephrectomy rats, urine phosphorus excretion; set-up: species or system rat; conditions: 314 mg elemental lanthanum/kg/day, oral lavage once daily for 14 days; compared to untreated rats
Method: Groups of six adult Sprague-Dawley rats underwent ⅚th nephrectomy in two stages over a period of 2 weeks and were then allowed to recover for a further two weeks prior to being randomized for treatment. The groups received vehicle (0.5% w/v carboxymethyl cellulose), or lanthanum oxycarbonate suspended in vehicle, once daily for 14 days by oral […] (10 ml/kg/day). The dose delivered 314 mg elemental lanthanum/kg/day. Dosing was carried out immediately before the dark (feeding) cycle on each day. Urine samples (24 hours) were collected prior to surgery, prior to the commencement of treatment, and twice weekly during the treatment period. Volume and phosphorus concentration were measured.
Feeding—During the acclimatization and surgery period, the animals were given Teklad phosphate sufficient diet (0.5% Ca, 0.3% P; Teklad No. TD85343), ad libitum. At the beginning of the treatment period, animals were pair fed based upon the average food consumption of the vehicle-treated animals the previous week.
⅚ Nephrectomy—After one week of acclimatization, all animals were subjected to ⅚ nephrectomy surgery. The surgery was performed in two stages. First, the two lower branches of the left renal artery were ligated. One week later, a right nephrectomy was performed. […]

[2] = physical and chemical properties of the phosphate binder; type: physicochemical
Description: The combination compositions of the present invention are benefited by the physical and chemical properties of the phosphate binders.

dogs = experiment: Palatability study in dogs; type: in vivo, dog; conditions: during hours post meal, 9 dogs
Description: Lanthanum oxycarbonate was mixed with wet and dry dog food and presented to 9 different dogs, almost all over 40 pounds.

adult beagle dogs = experiment: Dog study, urine phosphate excretion; type: in vivo; conditions: 2250 mg elemental lanthanum twice daily, oral capsules, cross-over; urine approximately 24 hours after dosing
Method: Six adult beagle dogs were dosed orally with capsules of lanthanum oxycarbonate LaCO3OH (compound A) or La2O2CO3 (compound B) in a cross-over design using a dose of 2250 mg elemental lanthanum twice daily (6 hours apart). The doses were administered 30 minutes after provision of food to the animals. At least 14 days washout was allowed between the crossover arms. Plasma was obtained pre-dose and 1.5, 3, 6, 7.5, 9, 12, 24, 36, 48, 60, and 72 hours after dosing and analyzed for lanthanum using ICP-MS. Urine was collected by catheterization before and approximately 24 hours after dosing and creatinine and phosphorus concentrations measured.

| Compound | phosphorus excretion (urine), a marker of dietary phosphorus binding [1] | stability at high temperatures [2] | solubility in aqueous media ([2]; pH above 2.0) | signs of nausea, vomiting, bloating or flatus (dogs) | urine phosphate excretion, a marker of phosphorous binding (adult beagle dogs) |
| --- | --- | --- | --- | --- | --- |
| O=C([O-])[O-].[La+3].[OH-] [lanthanum carbonate hydroxide] | decrease in phosphorus excretion | – | – | – | – |
| lanthanum oxycarbonate | decrease in phosphorus excretion | stable at high temperatures | sparingly soluble | None of the dogs exhibited signs of nausea, vomiting, bloating or flatus | – |
| O=C([O-])[O-].[La+3].[OH-] [compound A, LaCO3OH] | – | – | – | – | reduction of urine phosphate excretion |
| O=C([O-])[O-].[La+3].[La+3].[O-2].[O-2] [compound B, La2O2CO3] | – | – | – | – | reduction of urine phosphate excretion |
